Measured values from PubChem BioAssay (NCI).
Where “and” joins values, the source holds several entries; their conditions need not be identical. Identical values can stand only once.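 1) Cells in 96-well plates. 2) Compound, 48 h, 5 concentrations. 3) Linear interpolation between surrounding doses. 4) Unreached endpoint = highest concentration. At the GI50, growth is halved. At the TGI there is no net growth.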

Experiments:
Assay in all cases: inhibition of tumour cell growth, NCI panel, 48 h
NCI/ADR-RES ovarian = tested on: NCI/ADR-RES ovarian
SF-295 CNS = tested on: SF-295 CNS
NCI-H522 lung = tested on: NCI-H522 lung
SF-268 CNS = tested on: SF-268 CNS
RXF 393 renal = tested on: RXF 393 renal
NCI-H460 lung = tested on: NCI-H460 lung
MALME-3M melanoma = tested on: MALME-3M melanoma
PC-3 prostate = tested on: PC-3 prostate
SK-MEL-2 melanoma = tested on: SK-MEL-2 melanoma
SK-OV-3 ovarian = tested on: SK-OV-3 ovarian

Row | Structure (SMILES) | TGI (NCI/ADR-RES ovarian) [µM] | TGI (SF-295 CNS) [µM] | TGI (NCI-H522 lung) [µM] | TGI (SF-268 CNS) [µM] | TGI (RXF 393 renal) [µM] | TGI (NCI-H460 lung) [µM] | TGI (MALME-3M melanoma) [µM] | TGI (PC-3 prostate) [µM] | TGI (SK-MEL-2 melanoma) [µM] | TGI (SK-OV-3 ovarian) [µM] | GI50 (NCI-H522 lung) [µM] | GI50 (SF-268 CNS) [µM] | GI50 (RXF 393 renal) [µM] | GI50 (SK-OV-3 ovarian) [µM] | GI50 (NCI-H460 lung) [µM] | GI50 (MALME-3M melanoma) [µM] | GI50 (SK-MEL-2 melanoma) | GI50 (NCI/ADR-RES ovarian) [µM] | GI50 (SF-295 CNS) [µM] | GI50 (PC-3 prostate) [µM]
1 | C=C(C)[C@@H]1CC[C@]2(C)CC[C@]3(C)[C@H](CC[C@@H]4[C@@]5(C)CC[C@H](O)C(C)(C)[C@@H]5CC[C@]43C)[C@@H]12 | > 100 | > 82.7 | 55.7 | > 100 | 28.7 | > 100 | > 100 | 98.4 | > 100 | – | – | – | – | – | – | – | – | – | – | –
2 | C=CCNC(=O)N(CCCCC(NC(C)=O)C(=O)NCc1ccccc1)Cc1ccccc1 (configuration not stated) | – | > 100 | > 100 | > 100 | > 100 | > 100 | > 100 | – | > 100 | > 100 | – | – | – | – | – | – | – | – | – | –
3 | CN(O)C(=O)SCC(NC(=O)CCC(N)C(=O)O)C(=O)NCC(=O)O (configuration not stated) | – | > 2 | > 2000 | > 2000 | > 2000 | > 2000 | > 2000 | – | > 2000 | > 2000 | > 2000 | > 2 | > 2000 | > 2000 | > 2 | > 2000 | > 2 µM and 524 µM | – | – | –
4 | CN1CCC2(CC1)ONC1=NCCN12 | 70.3 | > 100 | > 100 | > 100 | – | > 100 | 73.7 | 66.5 | > 100 | > 100 | 29.3 | 37.2 | – | 42 | 37.2 | 20.1 | > 100 µM | 19.6 | 44.5 | 26
5 | COc1cc(Br)c(C=Nc2cccc3cc(OC)c(OC)cc23)cc1OC | – | 73.4 | > 100 | > 100 | 50.3 | > 100 | > 100 | – | – | > 100 | – | – | – | – | – | – | – | – | – | –
6 | Cc1nnn[n-]1.N.N.N.N.N.[Cl-].[Co+3] | – | > 100 | > 100 | > 100 | > 100 | > 100 | > 100 | – | > 100 | > 100 | > 100 | > 100 | > 100 | > 100 | > 100 | > 100 | > 100 µM | – | > 100 | –
7 | C[C@H](NC(=O)[C@@H](C)N)[C@H](Oc1ccc2c(cnn2-c2ccc(F)cc2)c1)c1ccc2c(c1)OCCO2 | 13.5 | 3.9 | 3.78 | 10.7 | 11.2 | 3.15 | 3.09 | – | 3.92 | 13.5 | 1.9 | 2.48 | 3.58 | 0.208 | 1.56 | 1.5 | 1.91 µM | 2.69 | 1.95 | –
8 | O=C(O)CCC(=O)N1c2ccccc2CC1c1c[nH]c2ccccc12 (configuration not stated) | – | > 100 | > 100 | > 100 | > 100 | > 100 | > 100 | – | > 100 | > 100 | – | – | – | – | – | – | – | – | – | –
9 | C=C1C(=O)O[C@@H]2C[C@@H](C)[C@@H]3C=CC(=O)[C@@]3(C)[C@@H](O)[C@H]12 | – | 6.48 | 0.663 | 27.9 | 1.35 | 4.46 | 3.87 | 7.22 | 4.04 | – | – | – | – | – | – | – | – | – | – | –
